These results are taken from PubChem BioAssay AID2305 (GlaxoSmithKline (GSK), 2010).

Structures are written as SMILES.

In the assay the test system is P. falciparum 3D7 growth, pLDH absorbance. The experiment in a line: blood-stage malaria parasite growth potency – strain 3D7, dose response (AID 2305).
With `CCCCCN1CCCC(NS(=O)(=O)c2cccc(C(=O)Nc3cccc(C(F)(F)F)c3)c2)C1` (stereo not drawn), the concentration for half-maximal inhibition (IC50) came out at 1070 nM.
Regarding `CCCCCN1CCC(NC(=O)c2ccc(C(=O)Nc3ccc(C(C)C)cc3)cc2)CC1`, the concentration for half-maximal inhibition (IC50) worked out at 850 nM.
In turn, `Cc1cc(Nc2ccc(O)cc2)nc2cc(O)ccc12` returned a concentration for half-maximal inhibition (IC50) of 760 nM.
In the case of `Fc1cccc(Cl)c1-c1nc(NCCC(c2ccccc2)c2ccccc2)no1`, the half-maximal inhibitory concentration (IC50) stood at 550 nM.
Turning to `Cn1cc(C2CCN(CCCCNC(=O)c3ccc(C(=O)Nc4ccc(C#N)cc4)cc3)CC2)c2ccccc21`, the concentration for half-maximal inhibition (IC50) came out at 720 nM.
As for `O=C(NCCCCN1CCC(c2ccc3c(c2OCCN2CCCC2=O)CCCC3)CC1)c1ccc(-c2ccc(C(F)(F)F)cc2)cc1`, the IC50 was found to be 1520 nM.
For `O=C(Cc1ccc(NC(=O)c2ccc(O)c(-c3cccc([N+](=O)[O-])c3)c2)cc1)NCCN1CCCCC1`, the half-maximal inhibitory concentration (IC50) was 900 nM.
`CN(C)CCCN(C)c1cccc2c1nc(-c1cccnc1)n2CCNCc1ccccc1` gave an IC50 of 1390 nM.
With `CCn1c(-c2nonc2N)nc2c(-c3ccc(CO)o3)ncc(OCCCN)c21`, the IC50 was determined as 1360 nM.
Regarding `Cc1[nH]c(C)c(-c2ccc(OCc3ccc(F)cc3)cc2)c(=O)c1Br`, the half-inhibitory concentration (IC50) turned out to be 80 nM.
With `COc1ccccc1CNC(=O)c1nn(-c2ccc(Cl)cc2)c(=O)c2ccccc12` the figure was 290 nM; with `Cc1noc(-c2ccc(NC[C@@H](C)NC[C@H](O)c3cccc(Cl)c3)cc2)n1`, 760 nM.
Molecule `CN1CC=C(c2c[nH]c3ccc(C(=O)c4nccs4)cc23)CC1` came in with an IC50 of 240 nM.
The molecule `Cc1cc(NC(=O)Nc2ccc(C(C)C)cc2)c2ccccc2n1` showed an IC50 of 660 nM.
With `Cc1ccccc1C1CCN(C2CCC(NC(=O)c3ccc(-c4ccccc4F)o3)CC2)CC1` (stereo not drawn) the figure was 1050 nM.
With `Cc1cc(N2CCNCC2)c2cc(NC(=O)Nc3ccc(Cl)c(Cl)c3)ccc2n1` the figure was 310 nM.
To `CC(=O)Nc1nc(C(=O)Nc2cccc(-c3ccc(-c4nc5ccccc5[nH]4)cc3)c2)cs1` belongs 420 nM; to `CC(C)CNCc1ccc(-c2ccccc2CN(C(=O)NCCc2ccccc2)C2CCN(Cc3ccccc3)CC2)cc1`, 880 nM; to `c1ccc(Oc2ccc(Nc3ccnc4cc(-c5cccc(CN6CCOCC6)c5)ccc34)cc2)cc1`, 340 nM.
For the molecule `O=C(/C=C/c1cccc(Cl)c1)NCCCCCN1CCC(c2c[nH]c3ccccc23)CC1`, the IC50 turned out to be 990 nM.
With `CCc1c[nH]c2c(N(c3ccccc3)S(C)(=O)=O)cc(C(=O)N[C@@H](Cc3ccccc3)[C@H](O)CNCc3cccc(C(F)(F)F)c3)cc12` the figure was 1000 nM; with `Cc1cc(NN=Cc2ccccc2)c2cc(F)ccc2n1`, 580 nM.
To `CC(C)(CNCc1cc(Cl)cc(Cl)c1)c1nc(-c2ccc(Cl)c(O)c2)c(-c2ccnc(N)n2)[nH]1` belongs 1010 nM; to `CN(C1CCC(NC(=O)/C=C/c2ccccc2)CC1)C1CC2(CCN(C(=O)OC(C)(C)C)CC2)c2ccccc21` (stereo not drawn), 820 nM.
In turn, `O=C(Cn1c(SCc2cccc(F)c2F)cc(=O)c2ccccc21)N(Cc1ccc(-c2ccc(C(F)(F)F)cc2)cc1)C1CCN(CCO)CC1` came in with a half-maximal inhibitory concentration (IC50) of 1250 nM.
With `CC1CCCN(C(=O)C(C)Nc2cc(Cl)ccc2N2CCOCC2)C1` (stereo not drawn) the figure was 320 nM; with `COc1ccc2nccc([C@@H](O)CN3CCC(NS(=O)(=O)c4cc5c(cc4Cl)SCC(=O)N5)CC3)c2c1`, 980 nM; with `N#CCCN1CCN(Cc2cccc(-c3ccc(-c4nc5ccccc5[nH]4)cc3)c2)CC1`, 1020 nM.
`Cc1ccc(O)cc1Nc1ccnc2ccc(-c3csc(CNCCN4CCOCC4)n3)cc12`: the half-maximal inhibitory concentration (IC50) was determined as 150 nM.
To `COc1ccc(NC(=O)[C@H](Cc2ccccc2)Nc2cc(C)nc(NCCc3ccc(F)cc3)n2)cc1` belongs 1120 nM; to `CC(C)(C)C(=O)Oc1ccc(CC2NCCc3cc(OC(=O)C(C)(C)C)c(OC(=O)C(C)(C)C)cc32)cc1OC(=O)C(C)(C)C` (stereo not drawn), 420 nM.
The molecule `COc1ccc(C2=C(Nc3ccc4oc5ccccc5c4c3)c3ccccc3C2=O)cc1` came in with an IC50 of 830 nM.
In the case of `Cc1ccc(NC(=S)N2CCCN(CCCCCNC(=O)/C=C/c3ccc(Cl)c(Cl)c3)CC2)cc1Cl`, the IC50 was found to be 920 nM.
Molecule `COc1ccc(CNC2CCN(C)CC2)cc1-c1cccc(S(=O)(=O)NCc2ccccc2)c1` displayed a half-maximal inhibitory concentration (IC50) of 720 nM.
With `COc1ccc2nc3cc(Cl)ccc3c(NCCCCNc3c4ccc(Cl)cc4nc4ccc(OC)cc34)c2c1` the figure was 160 nM.
On to `N#Cc1ccc(CN2CCC(Oc3ccc(NC(=O)c4ccco4)cc3Cl)CC2)cc1`, for which the half-maximal inhibitory concentration (IC50) amounted to 380 nM.
With `COc1ccccc1C1CCN(C2CCC(NC(=O)/C=C/c3cc(C(F)(F)F)cc(C(F)(F)F)c3)CC2)CC1` (stereo not drawn) the figure was 1200 nM; with `COc1ccc(N2CCN(CCCC/C=C/c3ccc(NC(=O)c4cc(Cl)cc(Cl)c4)cc3)CC2)c(OC)c1`, 660 nM; with `Cc1ccc2nc(-c3cc(-c4ccc(CO)cc4)cnc3N)[nH]c2c1`, 860 nM.
To `Oc1ccc(CCNc2nc(NCCOc3cccc4ccccc34)nc(N3CCNCC3)n2)cc1` belongs 900 nM; to `CN1CCN(c2cc3c(cc2Cl)CCN3C(=O)Cc2ccc(Cl)c(NC(=O)Nc3cccc([N+](=O)[O-])c3)c2)CC1`, 720 nM; to `COc1cccc(CN2CCCC(COC(c3ccc(F)cc3)c3ccc(F)cc3)C2)c1O` (stereo not drawn), 330 nM.
To `COc1cc(NC(=O)/C=C/c2cc3ccccc3n2C)ccc1OCCN(C(C)C)C(C)C` belongs 390 nM; to `Oc1ccc(CN2CCN(CCOC(c3ccccc3)c3ccccc3)CC2)cc1Cl`, 810 nM.
As to `CN1CCN(c2cc3c(cc2Br)CCN3C(=O)Nc2ccc(-c3cnc4ccccc4c3)cc2)CC1`, the IC50 turned out to be 580 nM.
In the case of `NCCNC(=O)c1ccc(-c2cnc3[nH]cc(-c4ccc(C(N)=O)cc4)c3c2)cc1`, the half-inhibitory concentration (IC50) stood at 170 nM.
`CC(CN=C(N)c1cccc(C(N)=NCC(C)Oc2cccc(C3CCCCC3)c2)n1)Oc1cccc(C2CCCCC2)c1` (stereo not drawn) showed a 50% inhibitory concentration (IC50) of 920 nM.
As for `O=C(c1cccc(COc2ccc3c(c2)CCN(C2CCCC2)CC3)c1)N1CCN(c2ccncc2)CC1`, the half-inhibitory concentration (IC50) came out at 740 nM.
Regarding `FC(F)(F)c1cc(Nc2ccc(Oc3ccccc3)cc2)c2cc(-c3ccncc3)ccc2n1`, the concentration for half-maximal inhibition (IC50) was 450 nM.
With `CCN(CC)CCn1c(=N)n(CC(O)c2ccc(Cl)c(Cl)c2)c2ccccc21` (stereo not drawn) the figure was 790 nM; with `CC(C)(C(=O)Nc1ccc(N2CCC3(CCCN(CC4CC4)C3)CC2)c(Cl)c1)c1cccc(C(F)(F)F)c1`, 2000 nM.
The molecule `CN(C)c1ccc(C=C2SC(=Nc3ccccc3)N(c3ccccc3)C2=O)cc1[N+](=O)[O-]` returned an IC50 of 780 nM.
To `COCCN1CCN(Cc2ccc(-c3ccc(-c4nc5ccc(F)cc5[nH]4)cc3)cc2)CC1` belongs 720 nM.
To `Cc1cc(N(C)C)nc(Nc2ccc(NC(=O)C3CCCCC3)cc2)n1` belongs 1110 nM; to `COc1cccc(C2CCN(CCN3CCC(NC(=O)c4ccc(-c5ccc(Cl)cc5)cc4)CC3)CC2)c1`, 1090 nM.
In the case of `CC(Sc1n[nH]c(-c2cccs2)n1)C(=O)c1c[nH]c2ccccc12` (stereo not drawn), the IC50 was 1800 nM.
With `Cc1nc(NCCCn2ccnc2)cc(-c2cncc(-c3ccc(OC(F)(F)F)cc3)c2)n1` the figure was 620 nM.
As to `O=C(C=Cc1cn(-c2ccccc2)nc1-c1cccs1)N1CCN(c2ccncc2)CC1`, the half-inhibitory concentration (IC50) worked out at 720 nM.
Molecule `COc1cc(OC)c2c(C)cc(NCCCn3ccnc3)nc2c1` yielded a 50% inhibitory concentration (IC50) of 800 nM.
The molecule `C[C@@H](N=C(Nc1ccc(C#N)cc1O)Nc1ccccc1Cl)c1ccc(Br)cc1` displayed a concentration for half-maximal inhibition (IC50) of 750 nM.
To `Cc1cccc(CN2CCC(CNC(=O)c3cc4c(-c5ccccc5F)nn(C)c4s3)CC2)c1` belongs 1090 nM; to `CN(C)CCOc1cccc(-c2cnc(N)c(-c3nc4ccc(S(C)(=O)=O)cc4[nH]3)c2)c1`, 950 nM.
`CCNc1cc(C(=O)N[C@@H](Cc2ccccc2)[C@H](O)CN[C@H](C)C(C)(C)C)cc(N2CCCCS2(=O)=O)c1` returned a half-maximal inhibitory concentration (IC50) of 820 nM.
To `CCN(C)c1cc(C(=O)N[C@@H](Cc2ccccc2)[C@H](O)CNC(C)(C)c2cccc(OC)c2)cc(N2CCCC2=O)c1` belongs 70 nM.
For `CCOc1cc2c(cc1S(=O)(=O)c1ccc(COc3ccc(C(F)(F)F)cc3)cc1)CCN(C)CC2`, the IC50 turned out to be 1020 nM.
In turn, `COc1ccc(CCN2CC[C@H](Nc3nc(-c4ccc(F)c(F)c4)nc4ccccc34)C2)cc1S(N)(=O)=O` had a concentration for half-maximal inhibition (IC50) of 790 nM.
To `O=C(Nc1ccc(CN2CCN(S(=O)(=O)c3ccc(Cl)s3)CC2)cc1)c1cccs1` belongs 890 nM; to `Cc1cc(NC2CCCC2)nc(Nc2ccc(F)cc2)n1`, 470 nM; to `Cc1ccc2sc(N3CCN(C(=O)c4ccc([N+](=O)[O-])o4)CC3)nc2c1C`, 940 nM.
To `Cc1cccc(NC(=S)NC2CCN(CCCCCNC(=O)/C=C/c3ccc(Cl)c(Cl)c3)CC2)c1` belongs 950 nM.
With `Cc1cc(N2CCN(C(=O)OC(C)(C)C)CC2)ccc1N` the figure was 870 nM.
Turning to `Cc1nc(C)c(-c2ccc(Oc3ccc(OC(F)(F)F)cc3)cc2)c(OC(=O)N(CCNC(C)C)C(C)C)c1Br`, the concentration for half-maximal inhibition (IC50) was 170 nM.
To `COC(=O)/C=C/c1ccc(C[C@@H](C)NC[C@H](O)c2cccc(C(F)(F)F)c2)cc1` belongs 730 nM.
`COc1ccc2nccc([C@@H](O)CN3CCC(NCc4nc5cc(F)c(F)cc5[nH]4)CC3)c2c1`: the half-maximal inhibitory concentration (IC50) came out at 530 nM.
To `COc1cccc(CNC(=O)NC2CCN(c3ccnc(Nc4cc(OC)c(OC)c(OC)c4)n3)C2)c1` (stereo not drawn) belongs 710 nM.
With `NC(=O)C1CCN(Cc2ccc(-c3cccc(-c4nc5ccc(F)cc5[nH]4)c3)cc2)CC1` the figure was 880 nM.
With `CC(C)N1CCC(N(Cc2ccc(-c3ccc(C(F)(F)F)cc3)cc2)C(=O)Cn2c(SCc3cccc(F)c3F)cc(=O)c3ccccc32)CC1` the figure was 820 nM; with `CCCCCCOc1ccc2ccccc2c1CNCCCCCCNCc1c(OCCCCCC)ccc2ccccc12`, 1060 nM; with `COc1ccc(N2CCN(c3nc(Nc4ccc(NC(C)=O)cc4)nc(N4CCCC4)n3)CC2)cc1`, 980 nM.
`CCOc1cc(NCCCNc2ncc([N+](=O)[O-])cc2C)nc2ccccc12` yielded a half-maximal inhibitory concentration (IC50) of 690 nM.
For the molecule `Nc1ncc(-c2ccc3nccc(-c4ccncc4)c3c2)cc1S(=O)(=O)N1CCOCC1`, the IC50 was 870 nM.
With `c1cncc(CCNCc2cccc(-c3csc(-c4nc5ccccc5[nH]4)c3)c2)c1`, the IC50 is 700 nM.
Molecule `CC1(C)N=C(N)N=C(N)N1OCCNCc1ccc(Cl)cc1` had a concentration for half-maximal inhibition (IC50) of 160 nM.

Usually IC50 stands for the midpoint of a concentration-inhibition curve. A low value points to greater potency.
